Experimental data as given in patent publication US12252469B2, “Crystalline forms of (E)-N-hydroxy-3-(1-(phenylsulfonyl)indolin-5-yl)acrylamide” (ANBOGEN THERAPEUTICS INC., priority 2023, dated 2025).

Tests used:
[1] = Solid stability evaluation for 1/2/4 weeks; settings: for HPLC purity change after solid stability / form change after solid stability: all storage conditions;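 as to all read-outs here: Solid-state physical and chemical stability tracked by XRPD for form, KF for water content, and HPLC for purity and assay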
Experimental: Type A/B were stored under the conditions of 60° C., 25° C./60% RH, 25° C./92.5% RH and 40° C./75% RH for 1/2/4 weeks for solid stability evaluation. Amorphous was stored under the conditions of 25° C./60% RH and 40° C./75% RH for 1/2/4 weeks for solid stability evaluation. The physical and chemical stability were evaluated by X-ray powder diffraction (XRPD), thermo gravimetric analysis (TGA)/Karl Fischer (KF), differential scanning calorimetry (DSC)/modulated differential I scanning calorimetry (mDSC), high performance liquid chromatography (HPLC) purity and assay, respectively.
XRPD, TGA, DSC and KF in this example are under the same conditions with those described in Example 2.
Agilent 1260 were utilized and detailed chromatographic conditions are listed in

[2] = Competitive slurry, inter-conversion of Type A and Type B; assay type: physicochemical
[3] = DVS water uptake; assay type: physicochemical
Experimental: DVS was measured via a SMS (Surface Measurement Systems) DVS Intrinsic or Intrinsic Plus. The relative humidity at 25° C. were calibrated against deliquescence point of LiCl, Mg(NO3)2 and KCl.

[4] = Polymorph characterization: form conversion on drying; assay type: physicochemical
Experimental: Using ABT-301 Type A (Sample name: ABT-301, CP ID: 826543-01-A) as starting material, a total of 100 polymorph screening experiments were performed, using methods of vapor-solution diffusion, vapor-solid diffusion, slow evaporation, slurry (RT and 50° C.), temperature cycling, slow cooling, anti-solvent addition and grinding.

O=C(/C=C/c1ccc2c(c1)CCN2S(=O)(=O)c1ccccc1)NO [Amorphous, (E)-N-hydroxy-3-(1-(phenylsulfonyl)indolin-5-yl) acrylamide]
Assay ([1]; 25° C./60% RH, 1 week): 91.3% | Form (XRPD) ([1]; 25° C./60% RH, 1 week): Type A | HPLC purity ([1]; 25° C./60% RH, 1 week): 99.71 Area % | Assay ([1]; 25° C./60% RH, 2 weeks): 92.2% | Form (XRPD) ([1]; 25° C./60% RH, 2 weeks): Type A | HPLC purity ([1]; 25° C./60% RH, 2 weeks): 99.76 Area % | Assay ([1]; 25° C./60% RH, 4 weeks): 90.7% | Form (XRPD) ([1]; 25° C./60% RH, 4 weeks): Type A | HPLC purity ([1]; 25° C./60% RH, 4 weeks): 99.81 Area % | Assay ([1]; 40° C./75% RH, 1 week): 91.5% | Form (XRPD) ([1]; 40° C./75% RH, 1 week): Type A | HPLC purity ([1]; 40° C./75% RH, 1 week): 99.75 Area % | Assay ([1]; 40° C./75% RH, 2 weeks): 92.1% | Form (XRPD) ([1]; 40° C./75% RH, 2 weeks): Type A | HPLC purity ([1]; 40° C./75% RH, 2 weeks): 99.78 Area % | Assay ([1]; 40° C./75% RH, 4 weeks): 90.6% | Form (XRPD) ([1]; 40° C./75% RH, 4 weeks): Type A | HPLC purity ([1]; 40° C./75% RH, 4 weeks): 99.84 Area % | Assay ([1]; Initial): 91.5% | Form (XRPD) ([1]; Initial): Amorphous | HPLC purity ([1]; Initial): 99.84 Area % | HPLC purity change after solid stability ([1]; 4 weeks): no obvious HPLC purity change | form change after solid stability ([1]; 4 weeks): converted to Type A

O=C(/C=C/c1ccc2c(c1)CCN2S(=O)(=O)c1ccccc1)NO [Type A/Type B, (E)-N-hydroxy-3-(1-(phenylsulfonyl)indolin-5-yl) acrylamide]
Result (form obtained, competitive slurry) ([2]; 2-MeTHF, 50° C., 2 days): Type B | Result (form obtained, competitive slurry) ([2]; 2-MeTHF, RT, 2 days): Type B + P | Result (form obtained, competitive slurry) ([2]; Acetone (aw~0), RT, 2 days): Type D | Result (form obtained, competitive slurry) ([2]; Acetone/H2O (95:5, aw~0.4), RT, 1 day): Type D | Result (form obtained, competitive slurry) ([2]; Acetone/H2O (605:395, aw~0.8), RT, 1 day): Type D | Result (form obtained, competitive slurry) ([2]; Acetone/H2O (857:143, aw~0.6), RT, 1 day): Type D | Result (form obtained, competitive slurry) ([2]; Acetone/H2O (986:14, aw~0.2), RT, 1 day): Type D | Result (form obtained, competitive slurry) ([2]; H2O, RT, 1 day): Type A | Result (form obtained, competitive slurry) ([2]; MIBK, 50° C., 2 days): Type B | Result (form obtained, competitive slurry) ([2]; MIBK, RT, 2 days): Type O | Result (form obtained, competitive slurry) ([2]; Toluene, 50° C., 8 days): Type B | Result (form obtained, competitive slurry) ([2]; Toluene, RT, 1 day, without molecular sieve, KF 0.0250 wt %, water activity 0.32): Type A | Result (form obtained, competitive slurry) ([2]; Toluene, RT, 2 days, with molecular sieve, KF 0.0072 wt %, water activity 0.11): Type B | Result (form obtained, competitive slurry) ([2]; n-Heptane, 50° C., 8 days): Type B | Result (form obtained, competitive slurry) ([2]; n-Heptane, RT, 1 day, without molecular sieve, KF 0.0049 wt %, water activity 0.29): Type A | Result (form obtained, competitive slurry) ([2]; n-Heptane, RT, 2 days, with molecular sieve, KF 0.0003 wt %, water activity 0.02): Type B | Result (form obtained, competitive slurry) ([2]; t-Butanol, RT, 1 day, water activity 0.06): Type B | Result (form obtained, competitive slurry) ([2]; t-Butanol/H2O (886:121), RT, 3 days, water activity 0.88): Type A | Result (form obtained, competitive slurry) ([2]; t-Butanol/H2O (909:10), RT, 1 day, water activity 0.17): Type B | Result (form obtained, competitive slurry) ([2]; t-Butanol/H2O (962:71), RT, 3 days, water activity 0.71): Type A | Result (form obtained, competitive slurry) ([2]; t-Butanol/H2O (980:35), RT, 1 day, water activity 0.37): Type A | Result (form obtained, competitive slurry) ([2]; t-Butanol/H2O (985:30), RT, 3 days, water activity 0.56): Type A

O=C(/C=C/c1ccc2c(c1)CCN2S(=O)(=O)c1ccccc1)NO [Type B, (E)-N-hydroxy-3-(1-(phenylsulfonyl)indolin-5-yl) acrylamide]
water uptake (DVS) ([3]; 25° C./80% RH): 0.1039% | form change after DVS test (XRPD) ([3]; after DVS test): no form change | Assay ([1]; 25° C./60% RH, 1 week): 97.8% | Form (XRPD) ([1]; 25° C./60% RH, 1 week): Type B | HPLC purity ([1]; 25° C./60% RH, 1 week): 99.85 Area % | Assay ([1]; 25° C./60% RH, 2 weeks): 96.8% | Form (XRPD) ([1]; 25° C./60% RH, 2 weeks): Type B | HPLC purity ([1]; 25° C./60% RH, 2 weeks): 99.85 Area % | Assay ([1]; 25° C./60% RH, 4 weeks): 98.2% | Form (XRPD) ([1]; 25° C./60% RH, 4 weeks): Type B | HPLC purity ([1]; 25° C./60% RH, 4 weeks): 99.86 Area % | KF (water content) ([1]; 25° C./60% RH, 4 weeks): 2.0658% | Assay ([1]; 40° C./75% RH, 1 week): 97.6% | Form (XRPD) ([1]; 40° C./75% RH, 1 week): Type B | HPLC purity ([1]; 40° C./75% RH, 1 week): 99.85 Area % | Assay ([1]; 40° C./75% RH, 2 weeks): 97.1% | Form (XRPD) ([1]; 40° C./75% RH, 2 weeks): Type B | HPLC purity ([1]; 40° C./75% RH, 2 weeks): 99.84 Area % | Assay ([1]; 40° C./75% RH, 4 weeks): 97.8% | Form (XRPD) ([1]; 40° C./75% RH, 4 weeks): Type B | HPLC purity ([1]; 40° C./75% RH, 4 weeks): 99.85 Area % | KF (water content) ([1]; 40° C./75% RH, 4 weeks): 0.8491% | Assay ([1]; 60° C., 1 week): 98.0% | Form (XRPD) ([1]; 60° C., 1 week): Type B | HPLC purity ([1]; 60° C., 1 week): 99.84 Area % | Assay ([1]; 60° C., 2 weeks): 96.5% | Form (XRPD) ([1]; 60° C., 2 weeks): Type B | HPLC purity ([1]; 60° C., 2 weeks): 99.80 Area % | Assay ([1]; 60° C., 4 weeks): 97.9% | Form (XRPD) ([1]; 60° C., 4 weeks): Type B | HPLC purity ([1]; 60° C., 4 weeks): 99.76 Area % | KF (water content) ([1]; 60° C., 4 weeks): 1.9894% | Assay ([1]; Initial): 96.8% | Form (XRPD) ([1]; Initial): Type B | HPLC purity ([1]; Initial): 99.85 Area % | KF (water content) ([1]; Initial): 0.5387% | Assay ([1]; […], 1 week): 97.9% | Form (XRPD) ([1]; […], 1 week): Type B | HPLC purity ([1]; […], 1 week): 99.85 Area % | Assay ([1]; […], 2 weeks): 96.8% | Form (XRPD) ([1]; […], 2 weeks): Type B | HPLC purity ([1]; […], 2 weeks): 99.85 Area % | Assay ([1]; […], 4 weeks): 98.1% | Form (XRPD) ([1]; […], 4 weeks): Type B | HPLC purity ([1]; […], 4 weeks): 99.85 Area % | KF (water content) ([1]; […], 4 weeks): 1.8514% | HPLC purity change after solid stability ([1]; 4 weeks): no form change, or obvious HPLC purity change | form change after solid stability ([1]; 4 weeks): no form change | water activity at which the form was obtained in competitive slurry ([2]; t-Butanol and t-Butanol/H2O, RT, water activity calculated from KF by COSMOlogic): ≤ 0.17

O=C(/C=C/c1ccc2c(c1)CCN2S(=O)(=O)c1ccccc1)NO [Type P, (E)-N-hydroxy-3-(1-(phenylsulfonyl)indolin-5-yl) acrylamide]
form conversion on drying ([4]; dried at RT overnight): The sample converted to Type A after dried at RT overnight.

O=C(/C=C/c1ccc2c(c1)CCN2S(=O)(=O)c1ccccc1)NO [Type Q, (E)-N-hydroxy-3-(1-(phenylsulfonyl)indolin-5-yl) acrylamide]
form conversion on drying ([4]; dried at RT in open air for 8 days and under vacuum for 16.5 hours): The sample converted to Type M after dried at RT in open
